Data taken from patent publication US11833160B2, “Ursodeoxycholic acid derivatives as HDAC inhibitors for the treatment of polycystic diseases” (UNIVERSIDAD DEL PAIS VASCO/EUSKAL HERRIKO UNIBERTSITATEA, priority 2017, dated 2023).
One block for each compound: values may come before it.

Key:
human HDAC5 = target: T1, human HDAC5 (Homo sapiens, UniProt Q9UQL6); test: HDAC5 enzymatic activity assay (fluorogenic peptide); assay type: biochemical; details: 10-dose, 3-fold serial dilution, triplicate
T1 construct: GST (N); purchased BioMol, Hamburg, Germany; host or cells: baculovirus / Sf9 cells
Experimental: (§1) Peptide substrates: all HDAC assays were performed using acetylated peptide substrates labeled with 7-amino-4-methylcoumarin (AMC): • Substrate for isoforms HDAC1, 2, 3, 6, 10, 11, and HeLa nuclear extract assays: acetylated fluorogenic peptide from p53 residues 379-382 (RHKKAc). • Substrate for isoforms HDAC4, 5, 7, 9: fluorogenic Boc-L-Lys (s-trifluoroacetyl)-AMC. • Substrate for HDAC8 assays: acetylated fluorogenic peptide from p53 residues 379-382 (RHKAcKAc).
50 μl of peptide substrate (see “peptide substrates” section above) and an optimal concentration of the corresponding enzyme (see “enzymes” section above) in the assay buffer at a final DMSO concentration of 1% were incubated in the presence of gradient concentrations of inhibitors (10-dose IC50 mode with 3-fold serial dilution) at 30° C. for 2 hours. The reactions were carried out in a 96-well microplate for fluorometry in a 50 μl reaction volume. After the deacetylation reaction, Fluor-de-Lys-Developer (BioMol Cat. #KI-105) was added to each well to digest the deacetylated substrate, thereby producing the fluorescent signal. The reaction was carried out for 45 minutes at 30° C. with 5% CO2; the fluorescent signal was then measured using an excitation wavelength of 360 nm and an emission wavelength of 460 nm in a microplate-reading fluorometer (GeminiXS, Molecular Devices, Sunnyvale, CA). […]

human HDAC7 = target: T2, human HDAC7 (Homo sapiens, UniProt Q8WUI4); test: HDAC7 enzymatic activity assay (fluorogenic peptide); assay type: biochemical; details: 10-dose, 3-fold serial dilution, triplicate
T2 construct: amino acids 518 end with GST N-terminal tag, MW=78 kDa; GST (N); purchased BioMol, Hamburg, Germany; host or cells: baculovirus expression system
T2 sequence (Q8WUI4 479-952 limits assumed): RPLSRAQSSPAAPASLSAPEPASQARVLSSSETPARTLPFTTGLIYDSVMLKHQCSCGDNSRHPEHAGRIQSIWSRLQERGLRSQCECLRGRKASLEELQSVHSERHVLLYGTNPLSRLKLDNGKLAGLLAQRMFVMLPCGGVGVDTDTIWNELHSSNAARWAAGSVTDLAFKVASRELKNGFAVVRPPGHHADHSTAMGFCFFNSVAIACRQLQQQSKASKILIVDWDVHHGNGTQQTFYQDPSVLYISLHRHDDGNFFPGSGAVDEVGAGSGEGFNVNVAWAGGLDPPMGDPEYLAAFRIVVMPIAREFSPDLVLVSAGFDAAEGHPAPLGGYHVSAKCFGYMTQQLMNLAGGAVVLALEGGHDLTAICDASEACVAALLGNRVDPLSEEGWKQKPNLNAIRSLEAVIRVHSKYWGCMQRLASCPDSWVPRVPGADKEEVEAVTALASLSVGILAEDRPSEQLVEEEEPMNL
Experimental: as §1
(§2) 50 μl of peptide substrate (see “peptide substrates” section above) and an optimal concentration of the corresponding enzyme (see “enzymes” section above) in the assay buffer at a final DMSO concentration of 1% were incubated in the presence of gradient concentrations of inhibitors (10-dose IC50 mode with 3-fold serial dilution) at 30° C. for 2 hours. The reactions were carried out in a 96-well microplate for fluorometry in a 50 μl reaction volume. After the deacetylation reaction, Fluor-de-Lys-Developer (BioMol Cat. #KI-105) was added to each well to digest the deacetylated substrate, thereby producing the fluorescent signal. The reaction was carried out for 45 minutes at 30° C. with 5% CO2; the fluorescent signal was then measured using an excitation wavelength of 360 nm and an emission wavelength of 460 nm in a microplate-reading fluorometer (GeminiXS, Molecular Devices, Sunnyvale, CA). A curve of deacetylated standard (Biomol, Cat. #KI-142; made from 100 μM with 1:2 dilution and 10 doses, 6 μl) allowed the conversion of the fluorescent signal into micromoles of deacetylated product. All experiments were performed in triplicate. The IC50s were calculated by fitting the experimental data to dose-response curve. DMSO was used as negative control; Trichostatin A (Biomol Cat. #GR-309) was used as positive control inhibitor.
(§3) Enzymatic activity assays were carried out in 11 HDAC enzymes, including HDAC6.

human HDAC8 = target: T3, human HDAC8 (Homo sapiens, UniProt Q9BY41); test: HDAC8 enzymatic activity assay (fluorogenic peptide); assay type: biochemical; details: 10-dose, 3-fold serial dilution, triplicate
T3 construct: purchased BioMol SE-145; host or cells: E. coli
T3 sequence (Q9BY41 1-377): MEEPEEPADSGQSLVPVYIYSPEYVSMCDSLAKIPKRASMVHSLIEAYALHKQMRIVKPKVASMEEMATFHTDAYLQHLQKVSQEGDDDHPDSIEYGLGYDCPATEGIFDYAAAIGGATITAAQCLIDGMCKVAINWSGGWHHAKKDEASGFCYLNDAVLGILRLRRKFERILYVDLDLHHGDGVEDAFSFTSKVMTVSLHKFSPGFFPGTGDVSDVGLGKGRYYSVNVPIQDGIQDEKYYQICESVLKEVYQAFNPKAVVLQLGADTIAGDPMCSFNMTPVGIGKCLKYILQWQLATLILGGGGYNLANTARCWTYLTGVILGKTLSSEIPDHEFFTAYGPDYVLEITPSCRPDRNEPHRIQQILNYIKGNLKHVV
Experimental: as §1, §2, §3

human HDAC1 = target: T4, human HDAC1 (Homo sapiens, UniProt Q13547); test: HDAC1 enzymatic activity assay (fluorogenic peptide); assay type: biochemical; details: for IC50: 10-dose, 3-fold serial dilution, triplicate
T4 construct: GST (C); purchased BioMol SE-456; host or cells: baculovirus / Sf9 cells
Experimental: as §1, §2, §3

human HDAC6 = target: T5, human HDAC6 (Homo sapiens, UniProt Q9UBN7); test: HDAC6 enzymatic activity assay (fluorogenic peptide); assay type: biochemical; details: for IC50: 10-dose, 3-fold serial dilution, triplicate; for HDAC6 selectivity proportion: matches IC50 HDAC1 / IC50 HDAC6
T5 construct: GST (N); purchased BioMol SE-508; host or cells: baculovirus / Sf9 cells
T5 sequence (Q9UBN7 1-1215): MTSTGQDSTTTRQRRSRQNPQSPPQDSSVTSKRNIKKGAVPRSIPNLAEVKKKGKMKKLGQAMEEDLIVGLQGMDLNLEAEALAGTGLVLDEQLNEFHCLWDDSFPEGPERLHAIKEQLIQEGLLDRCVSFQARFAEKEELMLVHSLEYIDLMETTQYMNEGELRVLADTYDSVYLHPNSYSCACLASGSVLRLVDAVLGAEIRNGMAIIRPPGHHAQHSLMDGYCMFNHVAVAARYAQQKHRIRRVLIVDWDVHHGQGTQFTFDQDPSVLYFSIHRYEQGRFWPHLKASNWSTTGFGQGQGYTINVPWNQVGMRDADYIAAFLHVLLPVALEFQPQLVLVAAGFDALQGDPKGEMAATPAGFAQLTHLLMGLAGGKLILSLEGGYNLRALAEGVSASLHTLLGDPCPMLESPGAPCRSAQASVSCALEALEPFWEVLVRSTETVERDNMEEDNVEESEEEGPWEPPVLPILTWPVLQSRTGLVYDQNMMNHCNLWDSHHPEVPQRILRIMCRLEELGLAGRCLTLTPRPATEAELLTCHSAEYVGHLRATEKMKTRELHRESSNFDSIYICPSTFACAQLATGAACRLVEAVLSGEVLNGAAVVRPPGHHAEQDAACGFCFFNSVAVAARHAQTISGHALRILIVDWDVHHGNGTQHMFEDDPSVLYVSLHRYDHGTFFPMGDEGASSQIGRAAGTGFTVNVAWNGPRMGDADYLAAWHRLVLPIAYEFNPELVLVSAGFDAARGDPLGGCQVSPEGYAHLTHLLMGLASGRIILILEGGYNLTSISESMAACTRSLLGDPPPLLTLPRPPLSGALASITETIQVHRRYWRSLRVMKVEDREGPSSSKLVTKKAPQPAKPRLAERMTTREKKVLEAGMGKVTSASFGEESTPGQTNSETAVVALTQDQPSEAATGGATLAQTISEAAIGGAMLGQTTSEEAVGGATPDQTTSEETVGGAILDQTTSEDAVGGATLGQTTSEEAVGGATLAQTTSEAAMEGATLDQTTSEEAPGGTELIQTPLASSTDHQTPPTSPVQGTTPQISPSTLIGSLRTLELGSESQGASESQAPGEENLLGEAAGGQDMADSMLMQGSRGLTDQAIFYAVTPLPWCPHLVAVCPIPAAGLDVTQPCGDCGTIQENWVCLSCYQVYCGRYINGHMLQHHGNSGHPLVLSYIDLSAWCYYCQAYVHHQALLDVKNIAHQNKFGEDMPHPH
Experimental: as §1, §2, §3

HDAC enzymes = test: Enzymatic activity assays in 11 HDAC enzymes (statements on the panel); assay type: biochemical, human; details: for inhibitory capacity with respect to the rest of the HDAC enzymes: HDAC enzymes other than HDAC6
Experimental: as §1, §2, §3

human HDAC2 = target: T6, human HDAC2 (Homo sapiens, UniProt Q92769); test: HDAC2 enzymatic activity assay (fluorogenic peptide); assay type: biochemical; details: 10-dose, 3-fold serial dilution, triplicate
T6 construct: His (C); purchased BioMol SE-500; host or cells: baculovirus / Sf9 cells
Experimental: as §1, §2, §3

T4 sequence (Q13547 whole entry): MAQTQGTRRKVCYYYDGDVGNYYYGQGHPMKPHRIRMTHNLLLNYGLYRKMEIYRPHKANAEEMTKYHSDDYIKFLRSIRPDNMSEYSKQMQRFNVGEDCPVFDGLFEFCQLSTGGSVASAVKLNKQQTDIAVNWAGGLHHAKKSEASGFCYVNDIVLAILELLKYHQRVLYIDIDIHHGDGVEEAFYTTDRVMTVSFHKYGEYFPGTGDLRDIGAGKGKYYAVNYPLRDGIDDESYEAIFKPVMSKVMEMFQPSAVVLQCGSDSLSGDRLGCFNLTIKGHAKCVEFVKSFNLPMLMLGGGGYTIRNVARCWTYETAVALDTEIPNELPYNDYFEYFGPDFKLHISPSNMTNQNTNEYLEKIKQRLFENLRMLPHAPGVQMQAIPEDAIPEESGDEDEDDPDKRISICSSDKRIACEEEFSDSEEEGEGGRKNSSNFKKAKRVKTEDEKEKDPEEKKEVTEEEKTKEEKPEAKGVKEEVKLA
T1 sequence (Q9UQL6 1-1123 isoform Q9UQL6-3): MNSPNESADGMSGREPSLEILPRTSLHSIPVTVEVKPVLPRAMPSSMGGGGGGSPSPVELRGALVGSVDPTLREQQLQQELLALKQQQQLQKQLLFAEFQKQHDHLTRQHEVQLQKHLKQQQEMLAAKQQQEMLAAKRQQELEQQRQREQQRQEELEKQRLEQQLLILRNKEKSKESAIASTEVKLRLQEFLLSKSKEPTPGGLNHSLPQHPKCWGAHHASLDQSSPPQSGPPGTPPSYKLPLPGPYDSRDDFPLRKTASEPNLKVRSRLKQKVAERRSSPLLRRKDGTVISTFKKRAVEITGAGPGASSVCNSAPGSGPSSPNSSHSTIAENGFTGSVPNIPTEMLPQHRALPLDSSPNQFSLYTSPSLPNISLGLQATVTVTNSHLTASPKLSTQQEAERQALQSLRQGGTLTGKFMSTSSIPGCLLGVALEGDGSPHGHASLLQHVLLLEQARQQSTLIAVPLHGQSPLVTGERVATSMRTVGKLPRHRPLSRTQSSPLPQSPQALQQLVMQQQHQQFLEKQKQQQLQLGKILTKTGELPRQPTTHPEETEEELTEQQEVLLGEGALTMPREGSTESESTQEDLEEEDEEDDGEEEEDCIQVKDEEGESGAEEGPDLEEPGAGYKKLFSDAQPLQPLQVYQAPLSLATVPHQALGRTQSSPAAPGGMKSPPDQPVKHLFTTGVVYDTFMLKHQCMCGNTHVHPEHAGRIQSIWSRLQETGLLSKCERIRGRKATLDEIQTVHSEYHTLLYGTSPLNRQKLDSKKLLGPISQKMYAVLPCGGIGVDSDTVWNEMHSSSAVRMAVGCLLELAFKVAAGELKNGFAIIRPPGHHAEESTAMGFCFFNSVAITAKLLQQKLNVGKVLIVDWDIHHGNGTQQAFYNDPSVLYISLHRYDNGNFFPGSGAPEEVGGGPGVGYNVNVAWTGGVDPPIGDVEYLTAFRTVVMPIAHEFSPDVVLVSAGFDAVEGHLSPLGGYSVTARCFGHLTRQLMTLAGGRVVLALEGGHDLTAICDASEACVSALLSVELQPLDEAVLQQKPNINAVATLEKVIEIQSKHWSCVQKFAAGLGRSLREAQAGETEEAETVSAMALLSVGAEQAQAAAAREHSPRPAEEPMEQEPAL
T6 sequence (Q92769 whole entry): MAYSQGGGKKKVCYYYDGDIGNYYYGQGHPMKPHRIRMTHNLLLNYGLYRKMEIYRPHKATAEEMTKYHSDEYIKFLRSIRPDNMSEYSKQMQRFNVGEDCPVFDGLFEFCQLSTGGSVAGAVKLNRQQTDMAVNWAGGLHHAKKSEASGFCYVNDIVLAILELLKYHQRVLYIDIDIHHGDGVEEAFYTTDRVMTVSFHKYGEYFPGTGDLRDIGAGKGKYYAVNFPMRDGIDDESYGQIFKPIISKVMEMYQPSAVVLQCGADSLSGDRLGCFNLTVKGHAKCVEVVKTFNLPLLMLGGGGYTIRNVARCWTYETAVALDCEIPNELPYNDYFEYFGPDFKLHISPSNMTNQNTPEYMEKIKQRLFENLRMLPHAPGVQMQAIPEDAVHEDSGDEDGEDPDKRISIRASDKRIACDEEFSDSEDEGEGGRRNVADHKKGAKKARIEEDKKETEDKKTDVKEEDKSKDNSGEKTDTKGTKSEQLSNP

SMILES: C[C@H](NC(=O)CC[C@@H](C)[C@H]1CC[C@H]2[C@@H]3[C@@H](O)C[C@@H]4C[C@H](O)CC[C@]4(C)[C@H]3CC[C@]12C)C(=O)NO
melting point: 170 to 172 °C

SMILES: C[C@H](CCC(=O)NCc1ccc(C(=O)NO)o1)[C@H]1CC[C@H]2[C@@H]3[C@@H](O)C[C@@H]4C[C@H](O)CC[C@]4(C)[C@H]3CC[C@]12C
melting point: 149 to 151 °C

SMILES: C[C@H](CCC(=O)NCCS)[C@H]1CC[C@H]2[C@@H]3[C@@H](O)C[C@@H]4C[C@H](O)CC[C@]4(C)[C@H]3CC[C@]12C
melting point: 116 to 117 °C

SMILES: C[C@H](CCC(=O)Nc1ccccc1S)[C@H]1CC[C@H]2[C@@H]3[C@@H](O)C[C@@H]4C[C@H](O)CC[C@]4(C)[C@H]3CC[C@]12C
melting point: 157 to 158 °C

SMILES: C[C@H](CCC(=O)NCCCCCC(=O)NO)[C@H]1CC[C@H]2[C@@H]3[C@@H](O)C[C@@H]4C[C@H](O)CC[C@]4(C)[C@H]3CC[C@]12C [If, 6-((R)-4-((3R,5S,7S,8R,9S,10S,13R,14S,17R)-3,7-dihydroxy-10,13-dimethylhexadecahydro-1H-cyclopenta[a]phenanthren-17-yl)pentanamide)-N-hydroxyhexanamide]
IC50 (human HDAC1): 2.57 µM
selectivity and inhibitory capacity with respect to HDAC6 enzyme (human HDAC6): nanomolar range
IC50 (human HDAC6): 0.0821 µM
HDAC6 selectivity proportion (human HDAC6): 31
inhibitory capacity with respect to the rest of the HDAC enzymes (HDAC enzymes): micromolar range
melting point: 125 to 127 °C

SMILES: C[C@H](CCC(=O)NCc1ccc(C(=O)NCc2ccc(C(=O)NO)cc2)cc1)[C@H]1CC[C@H]2[C@@H]3[C@@H](O)C[C@@H]4C[C@H](O)CC[C@]4(C)[C@H]3CC[C@]12C [Ig, 4-(((R)-4-((3R,5S,7S,8R,9S,10S,13R,14S,17R)-3,7-dihydroxy-10,13-dimethylhexadecanohydro-1H-cyclopenta[a]phenanthren-17-yl)pentanamido)methyl)-N-(4-(hydroxycarbamoyl)benzyl)benzamide]
IC50 (human HDAC1): 15.2 µM
selectivity and inhibitory capacity with respect to HDAC6 enzyme (human HDAC6): nanomolar range
IC50 (human HDAC6): 0.00426 µM
HDAC6 selectivity proportion (human HDAC6): 3574
inhibitory capacity with respect to the rest of the HDAC enzymes (HDAC enzymes): micromolar range
melting point: 187 to 189 °C

SMILES: C[C@H](CCC(=O)NCc1ccc(C(=O)Nc2ccccc2N)cc1)[C@H]1CC[C@H]2[C@@H]3[C@@H](O)C[C@@H]4C[C@H](O)CC[C@]4(C)[C@H]3CC[C@]12C [Ii, N-(2-aminophenyl)-4-(((R)-4-((3R,5S,7S,8R,9S,10S,13R,14S,17R)-3,7-dihydroxy-10,13-dimethylhexadecahydro-1H-cyclopenta[a]phenanthren-17-yl)pentanamide)methyl)benzamide]
IC50 (human HDAC1): 0.14 µM
HDAC1 selectivity proportion (human HDAC1; matches IC50 HDAC6 / IC50 HDAC1): 58
IC50 (human HDAC2): 0.516 µM
IC50 (human HDAC6): 8.08 µM
melting point: 168 to 170 °C

More lines, now with the values ahead:

melting point: 180 to 182 °C
SMILES: C[C@H](CCC(=O)NCCC(=O)NO)[C@H]1CC[C@H]2[C@@H]3[C@@H](O)C[C@@H]4C[C@H](O)CC[C@]4(C)[C@H]3CC[C@]12C

melting point: 165 to 167 °C
SMILES: C[C@H](CCC(=O)NCCCC(=O)NO)[C@H]1CC[C@H]2[C@@H]3[C@@H](O)C[C@@H]4C[C@H](O)CC[C@]4(C)[C@H]3CC[C@]12C

melting point: 163 to 165 °C
SMILES: C[C@H](CCC(=O)NCc1ccc(C(=O)Nc2cc(-c3ccccc3)ccc2N)cc1)[C@H]1CC[C@H]2[C@@H]3[C@@H](O)C[C@@H]4C[C@H](O)CC[C@]4(C)[C@H]3CC[C@]12C

IC50 (human HDAC5): 435 µM
IC50 (human HDAC7): 14.7 µM
IC50 (human HDAC8): 13.6 µM
SMILES: NCc1ccc(C(=O)NO)cc1 [4-(aminomethyl)-N-hydroxybenzamide, reference compound]

inhibitory activity on any HDAC (HDAC enzymes; in the assayed concentration range): no inhibitory activity whatsoever
SMILES: C[C@H](CCC(=O)O)[C@H]1CC[C@H]2[C@@H]3[C@@H](O)C[C@@H]4C[C@H](O)CC[C@]4(C)[C@H]3CC[C@]12C [UDCA, ursodeoxycholic acid]
